The target in assay [1] is T1, HDAC2 (Homo sapiens, UniProt Q92769).
T1 construct: Full length human HDAC2-FLAG was expressed in baculovirus infected Sf9 cells; FLAG (C); host or cells: baculovirus infected Sf9 cells
The assay can be described thus: HDAC2 inhibition, modified Fluor-de-Lys assay. The format is biochemical. Conditions: 3 h pre-incubation, 40 μM substrate BML-KI104, read-out: HDAC-2 IC50. The procedure:
(§1) Human HDAC Enzyme Inhibitor FLUOR-DE-LYS Assay Materials
(§2) Recombinant human HDAC1, HDAC2, and HDAC3/SMRT heterodimer were prepared by Merck Research Laboratories. […] The eluted protein was then passed over an anti-HDAC1 immunoaffinity column to remove any complexes containing HDAC1. […]
(§3) The histone deacetylase activities of HDAC1, HDAC2, HDAC3, HDAC6, and HDAC8 were measured in modified Fluor-de-Lys assays in 384-well format. In this assay, HDAC enzymes are initially incubated with an ε-acetyl (or -trifluoroacetyl)-L-lysine-containing substrate with a C-terminal amide having aminomethylcoumarin as the amine component. HDACs cleave the ε-acetyl group, rendering the resulting product susceptible to AMC cleavage by trypsin. The released AMC is then detected by its fluorescence.
(§4) The HDAC 1, 2 assays employed buffer A, which contained 20 mM HEPES, pH 8.0, 1 mM MgCl2, 137 mM NaCl, 2.7 mM KCl, 0.05% BSA. The HDAC3/SMRT assay employed buffer B, consisting of 20 mM HEPES, pH 8.0, 1 mM MgCl2, 50 mM NaCl, 2.7 mM KCl, 0.05% BSA, 0.005% Tween 20, and 10 μM IP4. The HDAC6 assay employed buffer C, consisting of 20 mM HEPES, pH 8.0, 1 mM MgCl2, 137 mM NaCl, 2.7 mM KCl, 0.5 mM TCEP (Calbiochem) and 0.05% BSA. The HDAC8 assay employed buffer D, consisting of 20 mM HEPES, pH 8.0, 1 mM MgCl2, 100 mM NaCl, 20 mM KCl, 0.1% n-octyl-β-D-glucoside (Anatrace, Maumee, Ohio) and 0.05% BSA. All steps were performed at room temperature (23° C.). The assay was performed by pre-incubating serial dilutions of test compounds with the target HDAC prior to initiation with substrate. Each compound was titrated in a 10-point dose response, using a 1:3 fold dilution scheme, with 0.15 ul of solution added by ECHO555 to the plate, followed by the addition of 20 μl of the appropriate HDAC isoform diluted in appropriate assay buffer. […] Final conditions used for each assay were: 1. HDAC 1, 0.3 nM total enzyme, 20 μM substrate BML-KI104; 2. HDAC 2, 1.5 nM total enzyme, 40 μM substrate BML-KI104; 3. HDAC 3/SMRT, 0.3 nM total enzyme, 20 μM substrate BML-KI104; 4. HDAC 6, 1.3 nM total enzyme, 2.5 μM substrate BML-KI104; 5. HDAC 8, 1.3 nM total enzyme, 200 μM substrate BML-KI178; the final high dose of test compound was 30 μM. For potent compounds, 900 nM was used as the final high dose. The reactions were stopped and developed by addition of 30 ul of HDAC developer solution containing a saturating level of HDAC inhibitor as follows: 1.

In assay [2] the target is T2, HDAC3/SMRT heterodimer (Homo sapiens, UniProt O15379).
T2 construct: FLAG (C)
T2 sequence (O15379 whole entry): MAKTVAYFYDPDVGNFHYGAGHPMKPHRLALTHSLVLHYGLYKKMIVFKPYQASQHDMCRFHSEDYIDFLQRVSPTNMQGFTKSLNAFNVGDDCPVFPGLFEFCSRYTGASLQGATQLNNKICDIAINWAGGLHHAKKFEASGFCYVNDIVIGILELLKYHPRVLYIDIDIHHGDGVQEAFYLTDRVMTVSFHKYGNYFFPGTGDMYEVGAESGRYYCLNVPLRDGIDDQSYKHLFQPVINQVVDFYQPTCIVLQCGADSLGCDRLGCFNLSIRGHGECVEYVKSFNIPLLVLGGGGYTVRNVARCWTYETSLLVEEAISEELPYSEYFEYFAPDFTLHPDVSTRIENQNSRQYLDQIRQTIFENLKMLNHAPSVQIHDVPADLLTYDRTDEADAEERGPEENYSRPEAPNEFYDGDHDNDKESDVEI
T2 sequence (Q9Y618 1-899 partner limits assumed): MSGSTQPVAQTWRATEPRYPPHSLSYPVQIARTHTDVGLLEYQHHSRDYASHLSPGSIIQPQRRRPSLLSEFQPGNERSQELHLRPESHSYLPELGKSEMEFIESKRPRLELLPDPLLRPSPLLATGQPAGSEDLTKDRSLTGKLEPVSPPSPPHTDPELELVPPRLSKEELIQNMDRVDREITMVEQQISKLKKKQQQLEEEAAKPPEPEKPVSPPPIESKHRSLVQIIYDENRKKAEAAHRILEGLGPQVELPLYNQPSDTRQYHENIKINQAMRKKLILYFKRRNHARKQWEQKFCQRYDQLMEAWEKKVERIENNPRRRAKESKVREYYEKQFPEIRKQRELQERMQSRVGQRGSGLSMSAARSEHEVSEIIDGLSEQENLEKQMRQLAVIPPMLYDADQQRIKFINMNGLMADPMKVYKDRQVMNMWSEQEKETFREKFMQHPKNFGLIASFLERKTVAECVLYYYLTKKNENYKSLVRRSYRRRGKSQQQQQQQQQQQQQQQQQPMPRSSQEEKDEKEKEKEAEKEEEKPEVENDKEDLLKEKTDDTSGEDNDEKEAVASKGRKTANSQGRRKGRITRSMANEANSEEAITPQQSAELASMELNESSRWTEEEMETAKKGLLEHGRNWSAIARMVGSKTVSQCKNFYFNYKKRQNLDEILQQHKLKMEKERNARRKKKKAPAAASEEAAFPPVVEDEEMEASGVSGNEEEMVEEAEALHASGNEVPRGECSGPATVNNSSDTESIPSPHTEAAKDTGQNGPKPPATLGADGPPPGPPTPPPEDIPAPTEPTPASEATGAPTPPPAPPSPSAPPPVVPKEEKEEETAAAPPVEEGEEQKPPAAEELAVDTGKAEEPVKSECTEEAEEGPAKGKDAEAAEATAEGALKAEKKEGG
The assay can be described thus: HDAC3/SMRT inhibition, modified Fluor-de-Lys assay. Conditions: 3 h pre-incubation, 0.3 nM enzyme, 20 μM substrate BML-KI104, read-out: HDAC-3 IC50. The format is biochemical. As for the experimental part: as §1, §2, §3, §4

In assay [3] the test system is KARN cells (Jurkat 2C4). The assay can be described thus: KARN assay (luciferase induction). The format is cell-based. Conditions: Jurkat, ~20 hr, 100% induction = 2 μM SAHA. The procedure:
KARN cells (Jurkat 2C4) were licensed from the laboratory of Dr. John Kam, Case Western Reserve University, School of Medicine. […] An atmosphere of 5% CO2 and 90% humidity was used for all culture work. Cells were split and reseeded into T175 flasks at a density of 0.2×10^6 cells/ml, in 40 ml of media, every 3-4 days.
Day 1: After the 3-4 day growth period, the cells were transferred from the T175 flask to a 50 ml conical tube and gently pelleted at 1000 rpm for 5 minutes. […] These flasks were returned to the incubator.
Day 2: Cell Preparation: The next day, the cells were transferred from each T175 flask to an individual 50 ml conical tube and gently pelleted at 1000 rpm for 5 minutes. The cells were gently resuspended in assay media (30 ml) and pelleted again. […] The cells were counted using the ViCell (Beckman Coulter, Brea, Calif.) and diluted as necessary. A Multidrop (Combi, Thermo Scientific, Waltham, Mass.) with a sterile head was used to seed the cells into the wells of a 384-well solid black plate with lid (Perkin Elmer, Waltham, Mass., catalog number 6007660) at 4000 cells/30 μl/well for the 5% NHS assay media and 6000 cells/30 μl/well for 0.1% NHS assay. The plates were covered and returned to the incubator prior to compound addition.
Compound Preparation: Solutions of control inhibitor suberoylanilide hydroxamic acid (SAHA; Sigma, catalog number SML0061) and test compounds in 100% DMSO were titrated into 384-well polypropylene plates (Labcyte, San Jose, Calif., catalog number P-05525) using a 20-point dose response and 2-fold dilutions. The reference compounds, DMSO and SAHA were then added to the compound plate. Using the Access system (Labcyte), 120 nl of these inhibitor and control solutions were added to the individual wells of the plates containing the cells, and the plates were then returned to the incubator for ˜20 hr (range from 18-24 hr). The final high concentration for SAHA and the test compounds in the assays was 40 μM. The final DMSO concentration in all wells was 0.4%. The minimal induction reference compound used was DMSO and the maximal induction reference compound used was SAHA (2 μM final concentration in the assay).
Day 3: The luciferase detection reagent was prepared by transferring the contents of one bottle of Steady-Glo buffer to one bottle of Steady-Glo substrate (Steady-Glo Luciferase Assay System, Promega, Madison, […]., catalog number E2520), followed by gently mixing until the substrate was thoroughly dissolved and the solution was equilibrated to room temperature. The cell culture assay plates were removed from the incubator and brought to room temperature (15 min). The Steady-Glo Reagent was added to the plates (30 μl/well), which were then covered with a black lid and incubated for 10 minutes at room temperature. The plates were then read for luminescence on an Envision (Perkin Elmer) using the ultrasensitive mode (US LUM), […] and 384-well aperture. Luminescence counts in the DMSO reference wells were considered as 0% induction, while those in the 2 μM SAHA reference wells were considered as 100% induction. Dose response curves were plotted as test compound concentration (X-axis) vs. percent activation (Y-axis) using a 4-parameter fit based on the Levenberg-Marquardt algorithm.

In assay [4] the target is T3, HDAC1 (Homo sapiens, UniProt Q13547).
T3 construct: FLAG (C)
T3 sequence (Q13547 whole entry): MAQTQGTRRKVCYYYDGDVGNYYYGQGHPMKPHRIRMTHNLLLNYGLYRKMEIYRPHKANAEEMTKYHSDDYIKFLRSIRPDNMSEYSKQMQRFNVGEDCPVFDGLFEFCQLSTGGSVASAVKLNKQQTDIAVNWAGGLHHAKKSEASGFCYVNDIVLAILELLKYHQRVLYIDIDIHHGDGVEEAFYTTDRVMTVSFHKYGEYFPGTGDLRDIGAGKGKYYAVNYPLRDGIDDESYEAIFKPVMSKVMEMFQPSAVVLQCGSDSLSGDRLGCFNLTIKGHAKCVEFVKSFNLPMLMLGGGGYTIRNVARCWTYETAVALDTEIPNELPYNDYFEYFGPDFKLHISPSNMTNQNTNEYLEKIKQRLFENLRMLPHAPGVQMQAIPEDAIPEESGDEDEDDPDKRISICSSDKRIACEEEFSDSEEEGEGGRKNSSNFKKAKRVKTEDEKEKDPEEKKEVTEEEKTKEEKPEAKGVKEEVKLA
Put plainly: HDAC1 inhibition, modified Fluor-de-Lys assay. The format is biochemical. Conditions: 3 h pre-incubation, 0.3 nM enzyme, 20 μM substrate BML-KI104; read-out: HDAC-1 IC50. The procedure: as §1, §2, §3, §4

The mark [5] stands for this setting: read-out: Karn EC50 with 0.1% NHS, 0.1% normal human serum.
Where [6] appears, read: read-out: Karn EC50 with 5% NHS, 5% normal human serum.

The results in this text go back to patent US11976069B2, “Inhibitors of histone deacetylase useful for the treatment or prevention of HIV infection” (Merck Sharp & Dohme LLC, priority 2019, dated 2024).

pEC50, pIC50: −log10 of the molar value. Like-named read-outs stand apart in the source and are kept apart here. Bounds are passed on as bounds.

T1 sequence (Q92769 whole entry): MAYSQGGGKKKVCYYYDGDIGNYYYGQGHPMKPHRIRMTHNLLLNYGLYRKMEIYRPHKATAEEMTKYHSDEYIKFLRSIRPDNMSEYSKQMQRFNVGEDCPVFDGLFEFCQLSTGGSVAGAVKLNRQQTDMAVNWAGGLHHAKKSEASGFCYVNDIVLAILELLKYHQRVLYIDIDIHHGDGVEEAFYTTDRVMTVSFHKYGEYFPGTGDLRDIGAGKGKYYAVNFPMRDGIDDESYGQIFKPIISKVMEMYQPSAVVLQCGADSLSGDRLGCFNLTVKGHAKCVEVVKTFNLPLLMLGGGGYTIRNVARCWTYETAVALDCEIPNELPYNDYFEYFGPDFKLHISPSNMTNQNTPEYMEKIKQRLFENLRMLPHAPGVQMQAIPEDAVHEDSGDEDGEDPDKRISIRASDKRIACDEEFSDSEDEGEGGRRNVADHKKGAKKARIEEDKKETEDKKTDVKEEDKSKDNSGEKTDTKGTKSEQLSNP

Regarding `CCC(=O)CCCCC[C@@H]1NC(=O)[C@H]2CC23CCN(CCCCCCCCn2ccc4cc(ccc4c2=O)-c2cnc1[nH]2)CC3` [Compound 1, (3S,6S)-6-(6-oxooctyl)-5,8,18,27,34-pentaazahexacyclo[25.2.2.1˜7,10˜.1˜11,15˜.1˜14,18˜.0˜1,3˜]tetratriaconta-7,9,11(33),12,14,16-hexaene-4,32-dione], the values for the pIC50 in assay [1] ([…] enzyme), in assay [2] and in assay [4] were 9.37, 10.21 and 9.70, respectively. Besides, the pEC50 in assay [3] (setting [5]) is 7.85; in assay [3] (setting [6]), 7.80.
On to `CCC(=O)CCCCC[C@@H]1NC(=O)[C@H]2CC23CCN(CCCCN2C4CCC2c2c(cccc24)-c2cnc1[nH]2)CC3` (stereo partly drawn) [Compound 2, (11S,4S)-4-(6-oxooctyl)-61,62,63,64-tetrahydro-51H-3-aza-6(5,9)-1,4-epiminonaphthalena-11(4,1)-piperidina-5(2,5)-imidazola-1(1,2)-cyclopropanaundecaphan-2-one], for which the pIC50 in assay [1] (1.5 nM enzyme) is 6.75; in assay [2], 7.62; in assay [4], 7.35. The pEC50 in assay [3] (setting [5]) is 5.20; in assay [3] (setting [6]), 5.04.
For `CCC(=O)CCCCC[C@@H]1NC(=O)[C@H]2CC23CCN(C/C=C/CN2C4CCC2c2cc(ccc24)-c2cnc1[nH]2)CC3` (stereo partly drawn) [Compound 3, (1^1S,4S,E)-4-(6-oxooctyl)-6^1,6^2,6^3,6^4-tetrahydro-5^1H-3-aza-6(6,9)-1,4-epiminonaphthalena-11(4,1)-piperidina-5(2,5)-imidazola-1(1,2)-cyclopropanaundecaphan-8-en-2-one], in that order: 8.15, 9.07, 8.57, 7.14 and 7.12.
As to `CCC(=O)CCCCC[C@@H]1NC(=O)[C@H]2CC23CCN(CCOCCn2ccc4cc(ccc4c2=O)-c2cnc1[nH]2)CC3` [Compound 4, (1^1S,4S)-4-(6-oxooctyl)-6^1,6^2-dihydro-5^1H-9-oxa-3-aza-6(6,2)-isoquinolina-12(4,1)-piperidina-5(2,5)-imidazola-1(1,2)-cyclopropanadodecaphane-6^1,2-dione], the values for the pIC50 in assay [1] ([…] enzyme), in assay [2] and in assay [4] were 7.46, 8.15 and 9.21, respectively. The pEC50 in assay [3] (setting [5]) and in assay [3] (setting [6]) was less than 4.40 in each case.
For `CCC(=O)CCCCC[C@@H]1NC(=O)CN(C)CCCCOCCCCn2ccc3cc(ccc3c2=O)-c2cnc1[nH]2` [Compound 6, (3S)-7-methyl-3-(6-oxooctyl)-11,12-dihydro-21H-12-oxa-4,7-diaza-1(6,2)-isoquinolina-2(5,2)-imidazolacyclohexadecaphane-11,5-dione], the pIC50 in assay [1] ([…] enzyme) is 6.23; in assay [2], 6.61; in assay [4] it was 7.55. Further, the pEC50 in assay [3] (setting [5]) was 5.60; in assay [3] (setting [6]), 5.45.
Turning to `CCC(=O)CCCCC[C@@H]1NC(=O)[C@H]2CC23CCN(CCCCCOc2ccc4cc(ccc4n2)-c2cnc1o2)CC3` [Compound 9], the pIC50 in assay [1] ([…] enzyme) is 6.47; in assay [2], 6.82; in assay [4], 7.62. Also, the pEC50 in assay [3] (setting [5]) and in assay [3] (setting [6]) was less than 4.40 in each case.
For `CCC(=O)CCCCC[C@@H]1NC(=O)[C@H]2CC23CCN(CCCCN2C4CCC2c2cc(ccc24)-c2cnc1[nH]2)CC3` (stereo partly drawn) [Compound 10, (3S,6S)-6-(6-oxooctyl)-5,8,20,25,31-pentaazaheptacyclo[23.2.2.1˜7,10˜.1˜11,15˜.0˜1,3˜.0˜14,19˜0.0˜16,20˜]hentriaconta-7,9,11(30),12,14-pentaen-4-one], the pIC50 in assay [1] (1.5 nM enzyme) is 6.83; in assay [2], 7.31; in assay [4], 7.72. In addition, the negative-log EC50 (pEC50) in assay [3] (setting [5]) is 6.07; in assay [3] (setting [6]) it was 6.06.
For the molecule `CCC(=O)CCCCC[C@@H]1NC(=O)[C@H]2CC23CCN(CCCOCCn2ccc4cc(ccc4c2=O)-c2cnc1[nH]2)CC3` [Compound 11, (3S,6S)-6-(6-oxooctyl)-21-oxa-5,8,18,25,32-pentaazahexacyclo[23.2.2.1˜7,10˜0.1˜11,15˜0.1˜14,18˜0.0˜1,3˜] dotriaconta-7,9,11(31),12,14,16-hexaene-4,30-dione], the pIC50 was 7.66 in assay [1] ([…] enzyme), 8.59 in assay [2] and 9.96 in assay [4]. The pEC50 in assay [3] (setting [5]) and in assay [3] (setting [6]) was less than 4.40 in each case.
Take `CCC(=O)CCCCC[C@H](NC(=O)[C@H]1CC12CCN(CC)CC2)c1[nH]c2nc1C(=O)NCCCCCc1cccc-2c1` [Compound 13, (S)-6-ethyl-N-((S)-7-oxo-1-((Z)-9-oxo-11H-8-aza-1(2,4)-imidazola-2(1,3)-benzenacyclononaphane-15-yl)nonyl)-6-azaspiro[2.5]octane-1-carboxamide]: the negative logarithm of the IC50 (pIC50) in assay [2] was 6.99; in assay [4] it was 6.96. Also, the pEC50 in assay [3] (setting [5]) was less than 4.40; in assay [3] (setting [6]), 4.92.

A word on the pIC50: it is the IC50 on a negative log10 scale, so that one unit is a factor of ten. As a reminder, the pEC50 is −log10 of the EC50, conventionally taken in molar units.
